Experimental data reported in US12441703B2, “Carboxamides as modulators of sodium channels” (VERTEX PHARMACEUTICALS INCORPORATED, priority 2019, dated 2025).

The molecules below were run against human NaV 1.8 (Homo sapiens, UniProt Q9Y5Y9) (assay: E-VIPR assay for detecting and measuring NaV inhibition properties). Conditions: E-VIPR assay conducted in the presence of human serum; HEK cells expressing truncated human NaV 1.8; read-out: IC50.
Type: cell-based
How it was run: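 HEK cells with truncated human NaV1.8 plus KIR2.1 BacMam, hexyl dye loaded 20 min, compound 30 min at room temperature, 11-point 3-fold series […], 0.625% DMSO, with or without human serum. E-VIPR biphasic stimulation at 10 Hz for 10 s; membrane-potential response read as normalized coumarin/oxonol ratio.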

human NaV 1.8, sequence (Q9Y5Y9 whole entry, looked up, the tested form may be a part): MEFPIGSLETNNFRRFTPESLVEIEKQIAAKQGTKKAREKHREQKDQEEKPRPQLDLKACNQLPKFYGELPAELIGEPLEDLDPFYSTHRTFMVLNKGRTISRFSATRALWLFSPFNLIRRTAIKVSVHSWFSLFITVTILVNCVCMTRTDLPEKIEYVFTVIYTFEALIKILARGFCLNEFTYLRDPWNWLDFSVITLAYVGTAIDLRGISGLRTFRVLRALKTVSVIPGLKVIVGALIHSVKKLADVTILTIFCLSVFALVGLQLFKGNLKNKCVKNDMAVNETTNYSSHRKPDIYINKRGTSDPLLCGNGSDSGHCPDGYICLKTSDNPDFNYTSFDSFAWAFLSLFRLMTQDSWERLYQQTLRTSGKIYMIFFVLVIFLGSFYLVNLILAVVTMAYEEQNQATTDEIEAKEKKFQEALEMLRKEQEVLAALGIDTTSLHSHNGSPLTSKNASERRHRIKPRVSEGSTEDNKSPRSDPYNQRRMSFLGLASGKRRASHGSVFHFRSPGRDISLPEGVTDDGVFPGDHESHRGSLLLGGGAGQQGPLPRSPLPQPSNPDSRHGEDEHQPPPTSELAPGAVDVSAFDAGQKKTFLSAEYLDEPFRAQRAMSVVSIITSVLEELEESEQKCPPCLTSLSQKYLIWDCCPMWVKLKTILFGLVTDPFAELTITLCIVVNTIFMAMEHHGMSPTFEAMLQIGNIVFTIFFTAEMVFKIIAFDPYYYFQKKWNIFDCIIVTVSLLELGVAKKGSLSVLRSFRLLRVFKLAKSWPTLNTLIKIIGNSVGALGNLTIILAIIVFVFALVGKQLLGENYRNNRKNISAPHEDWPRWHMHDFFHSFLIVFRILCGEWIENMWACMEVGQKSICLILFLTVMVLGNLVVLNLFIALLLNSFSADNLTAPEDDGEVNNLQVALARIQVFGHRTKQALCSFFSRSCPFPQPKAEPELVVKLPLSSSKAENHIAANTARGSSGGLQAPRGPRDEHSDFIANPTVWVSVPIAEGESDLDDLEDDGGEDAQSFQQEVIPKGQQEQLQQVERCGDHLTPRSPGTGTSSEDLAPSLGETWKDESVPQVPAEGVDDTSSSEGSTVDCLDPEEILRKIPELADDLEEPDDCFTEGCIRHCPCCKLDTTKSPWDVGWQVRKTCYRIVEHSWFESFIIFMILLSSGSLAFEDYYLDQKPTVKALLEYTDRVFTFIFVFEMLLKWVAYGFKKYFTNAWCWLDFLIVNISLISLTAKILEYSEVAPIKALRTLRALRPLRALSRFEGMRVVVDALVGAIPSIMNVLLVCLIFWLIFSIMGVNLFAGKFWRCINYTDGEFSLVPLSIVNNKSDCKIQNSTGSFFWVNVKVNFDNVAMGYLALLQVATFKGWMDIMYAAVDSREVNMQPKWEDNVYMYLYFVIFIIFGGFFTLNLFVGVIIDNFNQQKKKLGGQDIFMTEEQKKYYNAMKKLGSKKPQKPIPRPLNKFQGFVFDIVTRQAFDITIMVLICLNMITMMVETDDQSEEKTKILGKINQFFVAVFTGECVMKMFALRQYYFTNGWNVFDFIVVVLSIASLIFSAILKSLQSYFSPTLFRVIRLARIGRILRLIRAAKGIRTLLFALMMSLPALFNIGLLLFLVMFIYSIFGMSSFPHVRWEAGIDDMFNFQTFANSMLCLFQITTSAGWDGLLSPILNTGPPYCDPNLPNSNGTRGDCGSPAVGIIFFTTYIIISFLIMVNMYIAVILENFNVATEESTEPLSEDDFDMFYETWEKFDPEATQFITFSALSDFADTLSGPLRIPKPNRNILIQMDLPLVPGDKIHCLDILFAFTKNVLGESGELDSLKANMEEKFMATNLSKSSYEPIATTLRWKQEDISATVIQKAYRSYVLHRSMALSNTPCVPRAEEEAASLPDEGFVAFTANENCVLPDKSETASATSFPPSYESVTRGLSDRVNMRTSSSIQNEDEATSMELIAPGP

**Q.** For `[2H]C([2H])([2H])Oc1cc(OC(F)(F)F)ccc1Oc1cc(-c2ccccc2)cc(F)c1C(=O)Nc1ccnc(C(N)=O)c1` [Compound 92, 4-[[2-fluoro-4-phenyl-6-[2-(trideuteriomethoxy)-4-(trifluoromethoxy)phenoxy]benzoyl]amino]pyridine-2-carboxamide], which IC50 is on record?
**A.** 63 nM

**Q.** Which IC50 does the source give for `[2H]C([2H])([2H])Oc1cc(OC(F)(F)F)ccc1Oc1cc(-c2ccc(C(F)(F)F)cc2)cc(F)c1C(=O)Nc1ccnc(C(N)=O)c1` [Compound 93, 4-[[2-fluoro-6-[2-(trideuteriomethoxy)-4-(trifluoromethoxy)phenoxy]-4-[4-(trifluoromethyl)phenyl]benzoyl]amino]pyridine-2-carboxamide] here?
**A.** 13 nM

**Q.** For `[2H]C([2H])([2H])Oc1cc(OC(F)(F)F)ccc1Oc1cc(-c2cccc(C(F)(F)F)c2)cc(F)c1C(=O)Nc1ccnc(C(N)=O)c1` [Compound 94, 4-[[2-fluoro-6-[2-(trideuteriomethoxy)-4-(trifluoromethoxy)phenoxy]-4-[3-(trifluoromethyl)phenyl]benzoyl]amino]pyridine-2-carboxamide], which IC50 is on record?
**A.** 39 nM

**Q.** With `[2H]C([2H])([2H])Oc1cc(OC(F)(F)F)ccc1Oc1cc(-c2ccccc2C(F)(F)F)cc(F)c1C(=O)Nc1ccnc(C(N)=O)c1` [Compound 95, 4-[[2-fluoro-6-[2-(trideuteriomethoxy)-4-(trifluoromethoxy)phenoxy]-4-[2-(trifluoromethyl)phenyl]benzoyl]amino]pyridine-2-carboxamide] as the molecule, how does the IC50 read?
**A.** 140 nM

**Q.** With `[2H]C([2H])([2H])Oc1cc(OC(F)(F)F)ccc1Oc1cc(C2CCCC2)cc(F)c1C(=O)Nc1ccnc(C(N)=O)c1` [Compound 96, 4-[[4-Cyclopentyl-2-Fluoro-6-[2-(Trideuteriomethoxy)-4-(Trifluoromethoxy)Phenoxy]Benzoyl]Amino]Pyridine-2-Carboxamide] as the molecule, how does the IC50 read?
**A.** 13 nM

**Q.** How did the IC50 turn out when `[2H]C([2H])([2H])Oc1cc(OC(F)(F)F)ccc1Oc1cc(C2CCCCC2)cc(F)c1C(=O)Nc1ccnc(C(N)=O)c1` [Compound 97] was run?
**A.** 14 nM

**Q.** How did the IC50 turn out when `[2H]C([2H])([2H])Oc1cc(OC(F)(F)F)ccc1Oc1cc(C2CCC(F)(F)CC2)cc(F)c1C(=O)Nc1ccnc(C(N)=O)c1` [Compound 98] was run?
**A.** 23 nM

**Q.** `[2H]C([2H])([2H])Oc1cc(OC(F)(F)F)ccc1Oc1cc(C(F)(F)F)c(F)cc1C(=O)Nc1ccnc(C(N)=O)c1` [Compound 99, 4-[[5-fluoro-2-[2-(trideuteriomethoxy)-4-(trifluoromethoxy)phenoxy]-4-(trifluoromethyl)benzoyl]amino]pyridine-2-carboxamide] was tested. Which IC50 did it give?
**A.** 380 nM

**Q.** `[2H]C([2H])([2H])Oc1cc(OC(F)(F)F)ccc1Oc1cc(C(F)(F)F)c(F)cc1C(=O)Nc1ccc(C(N)=O)nc1` [Compound 100, 5-[[5-fluoro-2-[2-(trideuteriomethoxy)-4-(trifluoromethoxy)phenoxy]-4-(trifluoromethyl)benzoyl]amino]pyridine-2-carboxamide] was tested. Which IC50 did it give?
**A.** 630 nM

**Q.** `Cc1cc(F)ccc1Oc1ccc(C(F)(F)F)c(F)c1C(=O)Nc1ccc(C(N)=O)nc1` [Compound 101, 5-[[2-fluoro-6-(4-fluoro-2-methyl-phenoxy)-3-(trifluoromethyl)benzoyl]amino]pyridine-2-carboxamide] was tested. Which IC50 did it give?
**A.** 525 nM

**Q.** How did the IC50 turn out when `Cc1cc(F)ccc1Oc1ccc(C(F)(F)F)c(F)c1C(=O)Nc1ccnc(C(N)=O)c1` [Compound 102, 4-[[2-fluoro-6-(4-fluoro-2-methyl-phenoxy)-3-(trifluoromethyl)benzoyl]amino]pyridine-2-carboxamide] was run?
**A.** 36 nM

**Q.** Which IC50 does the source give for `COc1cc(F)ccc1Oc1ccc(C(F)(F)F)c(F)c1C(=O)Nc1ccnc(C(N)=O)c1` [Compound 103, 4-[[2-fluoro-6-(4-fluoro-2-methoxy-phenoxy)-3-(trifluoromethyl)benzoyl]amino]pyridine-2-carboxamide] here?
**A.** 13 nM

**Q.** How did the IC50 turn out when `COc1cc(F)ccc1Oc1ccc(C(F)(F)F)c(F)c1C(=O)Nc1ccc(C(N)=O)nc1` [Compound 104, 5-[[2-fluoro-6-(4-fluoro-2-methoxy-phenoxy)-3-(trifluoromethyl)benzoyl]amino]pyridine-2-carboxamide] was run?
**A.** 380 nM
